Results as given in PubChem BioAssay (NCI).
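Tested at 5 concentrations; 48 h exposure; 96-well plates; endpoints linearly interpolated, else capped at highest concentration. Definition used: TGI = concentration required for complete inhibition of growth.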

Tests used:
Assay in all cases: NCI-60 cell line screen, 48 h
[1] = system: 786-0 renal
[2] = system: A498 renal
[3] = system: A549 NSCLC
[4] = system: ACHN renal
[5] = system: CAKI-1 renal
[6] = system: COLO 205 colon
[7] = system: DU-145 prostate
[8] = system: HCT-116 colon
[9] = system: HOP-62 NSCLC
[10] = system: HOP-92 NSCLC
[11] = system: HT29 colon
[12] = system: K-562 leukemia
[13] = system: KM12 colon
[14] = system: M14 melanoma
[15] = system: MALME-3M melanoma
[16] = system: MCF7 breast
[17] = system: MDA-MB-231 breast
[18] = system: MDA-MB-435
[19] = system: MDA-N
[20] = system: MOLT-4 leukemia
[21] = system: NCI-H23 lung
[22] = system: NCI-H460 lung
[23] = system: NCI-H522 lung
[24] = system: NCI/ADR-RES ovarian
[25] = system: OVCAR-3 ovarian
[26] = system: OVCAR-4 ovarian
[27] = system: OVCAR-5 ovarian
[28] = system: OVCAR-8 ovarian
[29] = system: PC-3 prostate
[30] = system: RPMI-8226 leukemia
[31] = system: RXF 393 renal
[32] = system: SF-268 CNS
[33] = system: SF-295 CNS
[34] = system: SF-539 CNS
[35] = system: SK-MEL-2 melanoma
[36] = system: SK-MEL-28 melanoma
[37] = system: SK-MEL-5 melanoma
[38] = system: SK-OV-3 ovarian
[39] = system: SN12C renal
[40] = system: SNB-19 CNS
[41] = system: SR leukemia
[42] = system: SW-620 colon
[43] = system: T-47D breast
[44] = system: TK-10 renal
[45] = system: U251 CNS
[46] = system: UACC-62 melanoma
[47] = system: UO-31 renal
[48] = system: CCRF-CEM leukemia
[49] = system: EKVX NSCLC
[50] = system: HCC-2998 colon
[51] = system: HCT-15 colon
[52] = system: HL-60(TB) leukemia
[53] = system: HS 578T breast
[54] = system: IGROV1 ovarian
[55] = system: LOX IMVI melanoma
[56] = system: NCI-H226 lung
[57] = system: SNB-75 CNS
[58] = system: UACC-257 melanoma

SMILES: Cc1cn(C2CC(COCc3ccccc3)N(CCO[Si](C)(C)C(C)(C)C)O2)c(=O)[nH]c1=O (stereo not drawn)
- TGI [1]: > 100 µM
- TGI [2]: 36.8 µM
- TGI [3]: 28.4 µM
- TGI [4]: 28.9 µM
- TGI [5]: 32.7 µM
- TGI [6]: 28.4 µM
- TGI [7]: 31 µM
- TGI [8]: 43 µM
- TGI [9]: 31 µM
- TGI [10]: 25.7 µM
- TGI [11]: 28.7 µM
- TGI [12]: 19.3 µM
- TGI [13]: 31.1 µM
- TGI [14]: 29.5 µM
- TGI [15]: 34.3 µM
- TGI [16]: 33 µM
- TGI [17]: 33.2 µM
- TGI [18]: 34.9 µM
- TGI [19]: 27.9 µM
- TGI [20]: 32.3 µM
- TGI [21]: 30.7 µM
- TGI [22]: 35.2 µM
- TGI [23]: 31.4 µM
- TGI [24]: 28.9 µM
- TGI [25]: 28.4 µM
- TGI [26]: 33.4 µM
- TGI [27]: 32 µM
- TGI [28]: 28.8 µM
- TGI [29]: 18.1 µM
- TGI [30]: 34.1 µM
- TGI [31]: 29 µM
- TGI [32]: 35.7 µM
- TGI [33]: 29.9 µM
- TGI [34]: 33.9 µM
- TGI [35]: 30 µM
- TGI [36]: 34.7 µM
- TGI [37]: 12.9 µM
- TGI [38]: 31.4 µM
- TGI [39]: 25.1 µM
- TGI [40]: 27.2 µM
- TGI [41]: 71.4 µM
- TGI [42]: 35.6 µM
- TGI [43]: 31.1 µM
- TGI [44]: 27.3 µM
- TGI [45]: 62.5 µM
- TGI [46]: 24.3 µM
- TGI [47]: 28.2 µM

SMILES: C=C(Br)C[N+]12CN3CN(CN(C3)C1)C2
- TGI [1]: > 100 µM
- TGI [2]: > 100 µM
- TGI [3]: > 100 µM
- TGI [4]: > 100 µM
- TGI [5]: > 100 µM
- TGI [48]: > 100 µM
- TGI [6]: > 100 µM
- TGI [7]: > 100 µM
- TGI [49]: > 100 µM
- TGI [50]: > 100 µM
- TGI [8]: > 100 µM
- TGI [51]: > 100 µM
- TGI [52]: > 100 µM
- TGI [9]: > 100 µM
- TGI [10]: > 100 µM
- TGI [53]: > 100 µM
- TGI [11]: > 100 µM
- TGI [54]: > 100 µM
- TGI [12]: > 100 µM
- TGI [13]: > 100 µM
- TGI [55]: > 100 µM
- TGI [14]: > 100 µM
- TGI [15]: > 100 µM
- TGI [17]: > 100 µM
- TGI [18]: > 100 µM
- TGI [19]: > 100 µM
- TGI [20]: > 100 µM
- TGI [56]: > 100 µM
- TGI [21]: > 100 µM
- TGI [22]: > 100 µM
- TGI [23]: > 100 µM
- TGI [24]: > 100 µM
- TGI [25]: > 100 µM
- TGI [26]: > 100 µM
- TGI [27]: > 100 µM
- TGI [28]: > 100 µM
- TGI [29]: > 100 µM
- TGI [30]: > 100 µM
- TGI [31]: > 100 µM
- TGI [32]: > 100 µM
- TGI [33]: > 100 µM
- TGI [34]: > 100 µM
- TGI [35]: > 100 µM
- TGI [36]: > 100 µM
- TGI [37]: > 100 µM
- TGI [38]: > 100 µM
- TGI [39]: > 100 µM
- TGI [40]: > 100 µM
- TGI [57]: > 100 µM
- TGI [41]: > 100 µM
- TGI [42]: > 100 µM
- TGI [43]: > 100 µM
- TGI [45]: > 100 µM
- TGI [58]: > 100 µM
- TGI [46]: > 100 µM
- TGI [47]: > 100 µM
